16 compounds from ChEMBL document CHEMBL3044639, “Synthesis and biologic activities of some novel heterocyclic chalcone derivatives” (Med Chem Res, 2013) can be followed below.

Activity calls are given as the source filed them. The calls are words filed in the database; no cut-off is given here.

The first experiment relates to MOLT-4. Briefly: Cytotoxicity against Homo sapiens (human) MOLT4 cells assessed as growth inhibition after 48 hr by MTT assay. In kind it is functional, cell-based. The conditions noted are these: MOLT-4, 48 h.
By IC50 is commonly meant the point on the concentration scale where inhibition reaches its midpoint. Take `O=C(/C=C/c1ccccc1Cl)c1ccco1`: the IC50 was found to be 25 µM.
Consider `O=C(/C=C/c1ccc(Br)cc1)c1ccc[nH]1`, for which the IC50 worked out at 49 µM.
Turning to `O=C(/C=C/c1ccccc1)c1ccc[nH]1`, the IC50 is over 100 µM.
Turning to `O=C(/C=C/c1ccccc1)c1ccco1`, the IC50 was over 100 µM.
`O=C(/C=C/c1ccccc1Br)c1ccc[nH]1`: the IC50 turned out to be 38 µM.
Consider `COc1cccc(/C=C/C(=O)c2ccc[nH]2)c1`, for which the IC50 was found to be 28 µM.
`O=C(/C=C/c1cc([N+](=O)[O-])ccc1Cl)c1ccco1`: the half-maximal inhibitory concentration (IC50) turned out to be 72 µM.
As to `O=C(/C=C/c1ccc(Br)cc1)c1ccco1`, the IC50 was found to be 62 µM.
Regarding `O=C(/C=C/c1ccc([N+](=O)[O-])cc1)c1ccc[nH]1`, the half-inhibitory concentration (IC50) came out at 15 µM.
On to `CN(C)c1ccc(/C=C/C(=O)c2ccco2)cc1`, for which the concentration for half-maximal inhibition (IC50) turned out to be 12 µM.
For `O=C(/C=C/c1ccc(Cl)cc1Cl)c1ccc[nH]1`, the IC50 stood at 13 µM.

For another experiment, the system named is PC-3. Description: Cytotoxicity against Homo sapiens (human) PC3 cells assessed as growth inhibition after 48 hr by MTT assay. It is filed as functional, cell-based. The conditions noted are these: PC-3, 48 h.
With `O=C(/C=C/c1ccccc1Cl)c1ccco1`, the IC50 amounted to 14 µM.
`O=C(/C=C/c1ccc(Br)cc1)c1ccc[nH]1`: the half-inhibitory concentration (IC50) came out at 44 µM.
Consider `O=C(/C=C/c1ccccc1)c1ccc[nH]1`, for which the half-inhibitory concentration (IC50) is over 100 µM.
On the same count and under the same terms, for `O=C(/C=C/c1ccccc1)c1ccco1` the value was over 100 µM; for `O=C(/C=C/c1ccccc1Br)c1ccc[nH]1`, 44 µM; for `COc1cccc(/C=C/C(=O)c2ccc[nH]2)c1`, 24 µM.
Regarding `O=C(/C=C/c1cc([N+](=O)[O-])ccc1Cl)c1ccco1`, the IC50 stood at 62 µM.
For the compound `O=C(/C=C/c1ccc(Br)cc1)c1ccco1`, the IC50 was found to be 58 µM.
With `O=C(/C=C/c1ccc([N+](=O)[O-])cc1)c1ccc[nH]1`, the IC50 was 13 µM.
For the compound `CN(C)c1ccc(/C=C/C(=O)c2ccco2)cc1`, the IC50 amounted to 13 µM.
Consider `O=C(/C=C/c1ccc(Cl)cc1Cl)c1ccc[nH]1`, for which the half-inhibitory concentration (IC50) came to 22 µM.

A further experiment deals with Staphylococcus aureus. Description: Antibacterial activity against Staphylococcus aureus 1199B overexpressing NorA assessed as reduction of ciprofloxacin MIC at MEC after 18 hr by broth checkerboard method relative to control. It is filed as functional.
Settings: not given
For the compound `O=C(/C=C/c1ccccc1Cl)c1ccc[nH]1`, the “fold change (FC)” value is listed as 4.
On the same count and under the same terms, to `COc1ccc(/C=C/C(=O)c2ccco2)cc1OC` belongs 0; to `O=C(/C=C/c1cccc(Cl)c1Cl)c1ccc[nH]1`, 0.
In the case of `O=C(/C=C/c1ccccc1Br)c1ccco1`, the “fold change (FC)” value was found to be 0.
Take `O=C(/C=C/c1c(Cl)cccc1Cl)c1ccc[nH]1`: the “fold change (FC)” value was 0.
On to `O=C(/C=C/c1ccccc1Cl)c1ccco1`, for which the “fold change (FC)” value came out at 0.
The same measure, in the same setting: for `O=C(/C=C/c1ccc(Br)cc1)c1ccc[nH]1` the value was 0.
For the compound `O=C(/C=C/c1ccccc1)c1ccc[nH]1`, the “fold change (FC)” value amounted to 0.
In the case of `O=C(/C=C/c1ccccc1)c1ccco1`, the “fold change (FC)” value is listed as 0.
Regarding `O=C(/C=C/c1ccccc1Br)c1ccc[nH]1`, the “fold change (FC)” value was determined as 4.
Still for that read-out and setting: to `COc1cccc(/C=C/C(=O)c2ccc[nH]2)c1` belongs 0; to `O=C(/C=C/c1cc([N+](=O)[O-])ccc1Cl)c1ccco1`, 0.
Regarding `O=C(/C=C/c1ccc(Br)cc1)c1ccco1`, the “fold change (FC)” value is on record as 2.
As for `O=C(/C=C/c1ccc([N+](=O)[O-])cc1)c1ccc[nH]1`, the “fold change (FC)” value was 0.
In the case of `CN(C)c1ccc(/C=C/C(=O)c2ccco2)cc1`, the “fold change (FC)” value is given as 4.
On the same count and under the same terms, for `O=C(/C=C/c1ccc(Cl)cc1Cl)c1ccc[nH]1` the value was 0.

The subject of a further experiment is Rattus norvegicus. Description: Anti-inflammatory activity in Wistar Rattus norvegicus (rat) assessed as inhibition of carrageenan-induced paw edema at 100 mg/kg, po administered 45 min prior to carrageenan-challenge measured 45 min to 4 hr post carrageenan-challenge relative to control. In kind it is functional.
Settings: not given
(In general: Carrageenan injected into the paw causes an acute inflammation.)
Consider `O=C(/C=C/c1ccccc1Cl)c1ccc[nH]1`, for which the inhibition entry is “inactive”.
As a reminder, the inhibition in vivo is the drop in the measured response relative to a control, in per cent. Regarding `COc1ccc(/C=C/C(=O)c2ccco2)cc1OC`, the inhibition in vivo at 100 mg/kg was determined as 23%.
On to `O=C(/C=C/c1cccc(Cl)c1Cl)c1ccc[nH]1`, for which the inhibition entry is “inactive”.
As for `O=C(/C=C/c1ccccc1Br)c1ccco1`, the inhibition result is “inactive”.
The same measure, in the same setting: for `O=C(/C=C/c1c(Cl)cccc1Cl)c1ccc[nH]1` the value was “inactive”; for `O=C(/C=C/c1ccccc1Cl)c1ccco1`, “inactive”; for `O=C(/C=C/c1ccc(Br)cc1)c1ccc[nH]1`, “inactive”.
On to `O=C(/C=C/c1ccccc1)c1ccc[nH]1`, for which the inhibition result is “inactive”.
Regarding `O=C(/C=C/c1ccccc1)c1ccco1`, the inhibition entry is “inactive”.
Regarding `O=C(/C=C/c1ccccc1Br)c1ccc[nH]1`, the inhibition result is “inactive”.
Same read-out and setting: for `COc1cccc(/C=C/C(=O)c2ccc[nH]2)c1` the value was “inactive”; for `O=C(/C=C/c1cc([N+](=O)[O-])ccc1Cl)c1ccco1`, “inactive”; for `O=C(/C=C/c1ccc(Br)cc1)c1ccco1`, “inactive”.
The same measure, in the same setting: for `O=C(/C=C/c1ccc([N+](=O)[O-])cc1)c1ccc[nH]1` the value was “inactive”; for `CN(C)c1ccc(/C=C/C(=O)c2ccco2)cc1`, “inactive”.
Still for that read-out and setting: to `O=C(/C=C/c1ccc(Cl)cc1Cl)c1ccc[nH]1` belongs “inactive”.

Another experiment relates to Radical scavenging activity. Description: Antioxidant activity assessed as DPPH radical scavenging activity after 20 min by microplate ELISA reader analysis. In kind it is functional.
Settings: not given
In general terms: The DPPH test is a chemical assay of radical scavenging.
Regarding `O=C(/C=C/c1ccccc1Cl)c1ccc[nH]1`, the result was inactive.
For the compound `COc1ccc(/C=C/C(=O)c2ccco2)cc1OC`, the result was inactive.
The same measure, in the same setting: for `O=C(/C=C/c1cccc(Cl)c1Cl)c1ccc[nH]1` the value was “inactive”.
In the case of `O=C(/C=C/c1ccccc1Br)c1ccco1`, the result was inactive.
For `O=C(/C=C/c1c(Cl)cccc1Cl)c1ccc[nH]1`, the result was inactive.
Turning to `O=C(/C=C/c1ccccc1Cl)c1ccco1`, the result was inactive.
On the same count and under the same terms, to `O=C(/C=C/c1ccc(Br)cc1)c1ccc[nH]1` belongs “inactive”.
Still for that read-out and setting: to `O=C(/C=C/c1ccccc1)c1ccc[nH]1` belongs “inactive”.
`O=C(/C=C/c1ccccc1)c1ccco1`: the result was inactive.
Regarding `O=C(/C=C/c1ccccc1Br)c1ccc[nH]1`, the result was inactive.
Take `COc1cccc(/C=C/C(=O)c2ccc[nH]2)c1`: the result was inactive.
With `O=C(/C=C/c1cc([N+](=O)[O-])ccc1Cl)c1ccco1`, the outcome was inactive.
Same read-out and setting: for `O=C(/C=C/c1ccc(Br)cc1)c1ccco1` the value was “inactive”; for `O=C(/C=C/c1ccc([N+](=O)[O-])cc1)c1ccc[nH]1`, “inactive”.
`CN(C)c1ccc(/C=C/C(=O)c2ccco2)cc1`: the result was inactive.
In the case of `O=C(/C=C/c1ccc(Cl)cc1Cl)c1ccc[nH]1`, the outcome was inactive.

Another experiment has as its system HL-60. Briefly: Cytotoxicity against Homo sapiens (human) HL60 cells assessed as growth inhibition after 48 hr by MTT assay. It is filed as functional, cell-based. The conditions noted are these: HL-60, 48 h.
As to `O=C(/C=C/c1ccccc1Cl)c1ccco1`, the IC50 amounted to 12 µM.
Regarding `O=C(/C=C/c1ccc(Br)cc1)c1ccc[nH]1`, the 50% inhibitory concentration (IC50) came out at 32 µM.
Regarding `O=C(/C=C/c1ccccc1)c1ccc[nH]1`, the 50% inhibitory concentration (IC50) is over 100 µM.
Take `O=C(/C=C/c1ccccc1)c1ccco1`: the half-inhibitory concentration (IC50) is 100 µM.
Take `O=C(/C=C/c1ccccc1Br)c1ccc[nH]1`: the IC50 was determined as 42 µM.
On the same count and under the same terms, to `COc1cccc(/C=C/C(=O)c2ccc[nH]2)c1` belongs 16 µM.
As to `O=C(/C=C/c1cc([N+](=O)[O-])ccc1Cl)c1ccco1`, the IC50 stood at 58 µM.
The same measure, in the same setting: to `O=C(/C=C/c1ccc(Br)cc1)c1ccco1` belongs 48 µM; to `O=C(/C=C/c1ccc([N+](=O)[O-])cc1)c1ccc[nH]1`, 14 µM; to `CN(C)c1ccc(/C=C/C(=O)c2ccco2)cc1`, 12 µM.
On to `O=C(/C=C/c1ccc(Cl)cc1Cl)c1ccc[nH]1`, for which the IC50 came to 22 µM.

The next experiment concerns Staphylococcus aureus. Description: Antibacterial activity against Staphylococcus aureus 1199B overexpressing NorA assessed as growth inhibition after 18 hr by broth checkerboard method. In kind it is functional. As to conditions: read-out: MEC.
Turning to `O=C(/C=C/c1ccccc1Cl)c1ccc[nH]1`, the minimal effective concentration amounted to 25 µg/mL.
On the same count and under the same terms, for `COc1ccc(/C=C/C(=O)c2ccco2)cc1OC` the value was over 50 µg/mL; for `O=C(/C=C/c1cccc(Cl)c1Cl)c1ccc[nH]1`, over 50 µg/mL.
With `O=C(/C=C/c1ccccc1Br)c1ccco1`, the minimal effective concentration is over 50 µg/mL.
On the same count and under the same terms, to `O=C(/C=C/c1c(Cl)cccc1Cl)c1ccc[nH]1` belongs over 50 µg/mL; to `O=C(/C=C/c1ccccc1Cl)c1ccco1`, over 50 µg/mL.
`O=C(/C=C/c1ccc(Br)cc1)c1ccc[nH]1`: the minimal effective concentration was over 50 µg/mL.
As for `O=C(/C=C/c1ccccc1)c1ccc[nH]1`, the minimal effective concentration is over 50 µg/mL.
Take `O=C(/C=C/c1ccccc1)c1ccco1`: the minimal effective concentration is over 50 µg/mL.
For `O=C(/C=C/c1ccccc1Br)c1ccc[nH]1`, the minimal effective concentration stood at 25 µg/mL.
As to `COc1cccc(/C=C/C(=O)c2ccc[nH]2)c1`, the minimal effective concentration is over 50 µg/mL.
Take `O=C(/C=C/c1cc([N+](=O)[O-])ccc1Cl)c1ccco1`: the minimal effective concentration was over 50 µg/mL.
Turning to `O=C(/C=C/c1ccc(Br)cc1)c1ccco1`, the minimal effective concentration is 25 µg/mL.
As for `O=C(/C=C/c1ccc([N+](=O)[O-])cc1)c1ccc[nH]1`, the minimal effective concentration was over 50 µg/mL.
Take `CN(C)c1ccc(/C=C/C(=O)c2ccco2)cc1`: the minimal effective concentration worked out at 12.5 µg/mL.
Consider `O=C(/C=C/c1ccc(Cl)cc1Cl)c1ccc[nH]1`, for which the minimal effective concentration is over 50 µg/mL.

In a further experiment the test system is HeLa. Briefly: Cytotoxicity against Homo sapiens (human) HeLa cells assessed as growth inhibition after 48 hr by MTT assay.
Settings: not given
It is filed as functional, cell-based. For orientation: Tetrazolium dyes change colour on reduction, which living cells bring about.
On to `O=C(/C=C/c1ccccc1Cl)c1ccco1`, for which the IC50 amounted to 26 µM.
For the compound `O=C(/C=C/c1ccc(Br)cc1)c1ccc[nH]1`, the IC50 is over 100 µM.
Take `O=C(/C=C/c1ccccc1)c1ccc[nH]1`: the half-inhibitory concentration (IC50) was over 100 µM.
On to `O=C(/C=C/c1ccccc1)c1ccco1`, for which the concentration for half-maximal inhibition (IC50) is over 100 µM.
For the compound `O=C(/C=C/c1ccccc1Br)c1ccc[nH]1`, the IC50 came to 44 µM.
For `COc1cccc(/C=C/C(=O)c2ccc[nH]2)c1`, the half-inhibitory concentration (IC50) was 30 µM.
On to `O=C(/C=C/c1cc([N+](=O)[O-])ccc1Cl)c1ccco1`, for which the concentration for half-maximal inhibition (IC50) is over 100 µM.
Same read-out and setting: for `O=C(/C=C/c1ccc(Br)cc1)c1ccco1` the value was over 100 µM; for `O=C(/C=C/c1ccc([N+](=O)[O-])cc1)c1ccc[nH]1`, 26 µM.
Take `CN(C)c1ccc(/C=C/C(=O)c2ccco2)cc1`: the IC50 was 20 µM.
As to `O=C(/C=C/c1ccc(Cl)cc1Cl)c1ccc[nH]1`, the IC50 came out at 26 µM.
